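Following 48 hours of exposure in 96-well plates, responses at five concentrations were used to interpolate endpoints linearly. TGI marks complete inhibition of growth.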
Legend:
Assay in all cases: growth of human tumour cells (NCI), 48 h
LOX IMVI melanoma = test system: LOX IMVI melanoma
EKVX NSCLC = test system: EKVX NSCLC
NCI-H23 lung = test system: NCI-H23 lung
BT-549 breast = test system: BT-549 breast
HOP-92 NSCLC = test system: HOP-92 NSCLC
A549 NSCLC = test system: A549 NSCLC
IGROV1 ovarian = test system: IGROV1 ovarian
HS 578T breast = test system: HS 578T breast
T-47D breast = test system: T-47D breast
SK-OV-3 ovarian = test system: SK-OV-3 ovarian

| Compound | TGI (LOX IMVI melanoma) [µM] | TGI (EKVX NSCLC) [µM] | TGI (NCI-H23 lung) [µM] | TGI (BT-549 breast) [µM] | TGI (HOP-92 NSCLC) [µM] | TGI (A549 NSCLC) [µM] | TGI (IGROV1 ovarian) [µM] | TGI (HS 578T breast) [µM] | TGI (T-47D breast) [µM] | TGI (SK-OV-3 ovarian) [µM] |
| --- | --- | --- | --- | --- | --- | --- | --- | --- | --- | --- |
| CSCSSC | > 100 | > 100 | > 100 | > 100 | > 100 | > 100 | > 100 | > 100 | > 100 | > 100 |
| Cc1ccc(/C(O)=C/c2nc3ccccc3sc2=O)c(C)c1 | > 100 | > 100 | > 100 | 79.6 | 82.4 | > 100 | > 100 | > 100 | > 100 | > 100 |
| CC(C)=NN/C(=N\S(=O)(=O)c1ccc(Oc2cccc(Cl)c2C#N)cc1)Nc1ccc(Cl)cc1 | > 100 | > 100 | > 100 | > 100 | > 100 | > 100 | > 100 | > 100 | > 100 |  |
| O=C1C[C@@H](C(=O)OCc2ccccc2)NC(=O)C[C@@H](C(=O)OCc2ccccc2)NC(=O)C[C@@H](C(=O)OCc2ccccc2)N1 | > 100 | > 100 | > 100 | > 100 | > 60.7 | > 100 | > 100 | 72.3 | > 100 | 97.1 |
| O=[N+]([O-])c1ccc2sc(C=Nc3cnccn3)cc2c1 | 60.6 | > 100 | > 100 | > 100 | > 100 | > 100 | > 100 | 49.5 | 28 | > 100 |
| NCCCN(CCCN(C(=O)Nc1ccccc1)c1ccccc1)C(=O)Nc1ccccc1 | 56.6 | > 100 | > 100 | > 100 | 92 | > 100 | > 100 | > 100 | 79.3 | > 100 |
| CCOC(=O)c1nc2ccc(C(F)(F)F)cc2nc1Oc1cc(OC)c(OC)c(OC)c1 | > 100 | > 100 |  | > 100 | > 100 | > 100 | > 100 | 73.5 | > 100 | > 100 |
| O=C1CCCCCCCCCCC1CN1CCCC1 (stereo not given) | 70.7 |  | > 100 | > 100 |  | > 100 | > 100 | 84.7 | > 100 | > 100 |
| O=C1NC(=O)C(C(CC(=O)c2ccc([N+](=O)[O-])cc2)c2ccccc2)C(=O)N1 (stereo not given) | 38.7 |  | 95.1 | > 100 | > 100 | > 100 | > 100 | 31.7 | 67 | > 100 |
| NC(=O)c1cccc([N+](=O)[O-])c1 | > 100 | > 100 | > 100 |  |  | > 100 | > 100 |  |  | > 100 |
| CC(=O)N1CC(C)(C)c2c(C)c(O)c(C)c(C)c21 | > 100 | > 100 | > 100 |  | > 100 | > 100 | > 100 | > 100 | > 100 | > 100 |
| COc1ccc(C2=Nc3cc(C)c(C)cc3NC(c3ccccc3)C2)cc1 (stereo not given) | > 100 | > 100 | > 100 | > 100 | > 100 | > 100 | > 100 | > 100 | > 100 | > 100 |
| CC1C(=O)N(c2ccccc2)NC12CCCc1ccccc12 (stereo not given) | > 100 | > 100 | > 100 | > 100 | > 100 | > 100 | > 100 | > 100 | > 100 | > 100 |
| Cc1cc(S(=O)(=O)N/C(=C(\C#N)C(=O)c2ccc(Cl)cc2)[n+]2ccc(N(C)C)cc2)c([S-])cc1Cl |  |  |  | > 100 |  | > 100 | > 100 |  | > 100 | 96.7 |
| CC(=C(c1ccccc1)c1ccccc1)N1C(=O)CC(=O)N1C | 31.2 | > 100 | > 100 | > 100 | > 100 | > 100 | 39 | 55.4 | > 100 | > 100 |
| COc1ccc(N2C(=O)CC(=O)N(C(=O)COc3ccc(OCC(=O)N4C(=O)CC(=O)N(c5ccc(OC)cc5)C4=S)cc3)C2=S)cc1 |  | > 100 | > 100 | > 100 | > 100 | > 100 | > 100 |  |  | > 100 |
| C[N+](C)(C)c1ccc(C(N)C(=O)O)cc1 (stereo not given) | > 100 | > 100 | > 100 | > 100 | > 100 |  | > 100 | > 100 | > 100 | > 100 |
| OCCO/N=C1\C(c2c(O)[nH]c3ccccc23)=Nc2ccccc21 | > 100 | > 100 | > 100 | > 100 | > 100 | > 100 | > 100 | > 100 | > 100 | > 100 |
| COc1c(O)c(C=O)c2c(O)c(-c3c(C)cc4c(C(C)C)c(OC)c(O)c(C=O)c4c3O)c(C)cc2c1C(C)C |  | 17.7 | 13.2 |  | 8.31 | 11.6 | 18.5 |  |  | 14.2 |
| Cc1cccc(Nc2nn3c(=O)c4c5c(sc4nc3s2)CCCC5)c1 | 23.1 |  | 57.1 | 68.7 | > 100 | > 100 | > 100 | > 100 | 74.2 | > 100 |
| C=C/C(C)=C\CC1[C@](C)(O)CC[C@H]2C(C)(C)C(=O)CC[C@]12C (stereo not given in full) | > 100 | > 100 | > 100 |  | > 100 | > 100 | > 100 | > 100 |  |  |
| CC1CCCC2(CC[N+](C)(CCC[N+](C)(C)C)CC2)C1 (stereo not given) | > 100 | > 100 |  | > 100 | > 100 | > 100 | > 100 | > 100 | > 100 | > 100 |
| O=S(Nc1ccccc1)c1ccc(N2CCOCC2)cc1 (stereo not given) | > 100 | > 100 | > 100 | > 100 |  | > 100 | > 100 | > 100 | 58.9 |  |
